{"source": "patent US20060210479A1", "about": "(Dow Global Technologies Inc., priority 2004, published 2006)", "key": {"[1]": {"biological_target": "HSPC194 (Homo sapiens, UniProt Q9P0S9)", "sequence (Q9P0S9 whole entry)": "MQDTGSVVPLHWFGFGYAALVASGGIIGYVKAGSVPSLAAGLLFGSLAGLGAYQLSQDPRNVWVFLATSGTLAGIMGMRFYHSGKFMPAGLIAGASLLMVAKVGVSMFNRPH", "settings": "LNCaP, T84, Caco-2, RBL-2H3; 2 hours", "quoted_text": "Cell samples were lysed in parallel by sonication or by lysis in hypotonic buffer. Cell fractions were collected from discontinuous sucrose gradients and from separate Percoll gradients, after ultracentrifugation.\nFollowing fractionation, each sample was lyophilized to enrich the sample.\nThe resulting tryptic peptides were analyzed directly by mass spectrometry. Peptide mass fingerprints were generated for the identification of the protein, and MALDI-PSD was used to sequence Fragments T3, T4, T5, and T6. The resulting data were used to search GenBank for a human protein having or a nucleic acid encoding, an amino acid sequence matching this set of peptides."}, "[2]": {"system": "LNCaP cell line", "experiment": "Chelate permeability: fluorescence of cytoplasm and membrane fractions", "assay_type": "cell-based, human"}, "[3]": {"system": "RBL-2H3 cell line", "experiment": "Chelate permeability: fluorescence of cytoplasm and membrane fractions", "assay_type": "cell-based, rat", "settings": "0-2000 μM, 2 hours", "protocol": "Tb-PCTMB (Tb(III) 3,6,9-tris(methylene phosphonic acid n-butyl ester)-3,6,9,15-tetraazabicyclo[9.3.1]pentadeca-1(15),11,13-triene) was tested for permeability to abnormal and disease-state cells.\nRBL-2H3 is a rat basophilic leukemia cell line. These cells were grown in Iscove's Medium supplemented with 2 mM L-glutamnine, penicillin/streptomycin (100 IU/mL, 100 μg/mL) and 10% FBS. Cells were maintained at 5% CO2 and 95% humidity. PZ-HPV-7 cell line was derived from epithelial cells cultured from normal prostate tissue. They were grown in Keratinocyte-Serum Free Medium with human recombinant EGF and bovine pituitary extract supplemented with 50 μg/mL gentamicin and penicillin/streptomycin (100 IU/mL, 100 μg/mL). All media and supplements were purchased from Gibco BRL (Grand Island, N.Y., USA). All cell lines were obtained from ATCC and were maintained at 37° C., 5% CO2 and 95% humidity.\nCells were grown to confluence in T-150 flasks (about 2×10^6 cells). […] Cells were then removed from the flask by manual scraping. Cells were transferred to a 50-mL conical tube and centrifuged (400×g) for 5 minutes and the test material removed.\nCells were grown as described herein (Example 1). Cells were grown to confluence in T-150 flask (about 2×10^6 cells). […] Cells were then removed from the flask by manual scraping. Cells were transferred to a 50-mL conical tube and centrifuged (400×g) for 5 minutes and the test material removed.\nFurthermore, one analogue, QCTMP (FIG. 26), having lesser lipophilic character (a free phosphonic acid moiety) was evaluated. […] In this study, the cytoplasm and membrane fractions were extracted by Mem-PER Eukaryotic Membrane Protein Extraction Reagent Kit as described by the manufacturers (Pierce Biotechnology, Rockford, Ill.) and analyzed by a Fluor-S Multilmager."}, "[4]": {"system": "T84 cell line", "experiment": "Chelate permeability: fluorescence of cytoplasm and membrane fractions", "assay_type": "cell-based, human", "settings": "1 mM chelate, 2 h, Table 1"}, "[5]": {"system": "etoposide-induced (apoptotic) HEK293 cells", "experiment": "Permeability of chelates to apoptotic cells, fluorescence of fractions", "assay_type": "cell-based, human", "protocol": "(§1) The human kidney transformed HEK293 cells (obtained from the ATCC) were grown in Eagle's Minimum Essential Medium (EMEM) supplemented with 10% (v/v) heat-inactivated fetal bovine serum, sodium pyruvate, nonessential amino acids and antibiotics in a humidified 5% CO2 atmosphere at 37° C. Medium and supplements were purchased from Gibco bRL (Grand Island, N.Y.). Etoposide was obtained from Sigma (St. Louis, Mo.) and prepared as 20 mM solution in dimethyl sulfoxide (DMSO). For treatments, etoposide was applied to the HEK293 cultures at 1:1000 dilution (final concentration of 20 μM) after cell became 75% confluent. As a control, cells were fed with medium containing 0.1% DMSO in the absence of etoposide. After treatment with etoposide, cells were incubated in a humidified 5% CO2 at 37° C. for 24 hours. HEK293 cells were collected by removing treatment medium and washed 2 times with 10 mM HEPES buffer. Final cell pellets were resuspended in a small amount of HEPES and stored at 4° C. for further study.\n(§2) Cells were grown to confluence in T-150 flasks (about 2×10^6 cells). […] After treatment, the chelate or analogue supernatant was discarded and the cells were rinsed three times at room temperature with 10 mM HEPES. Cells were then removed from the flask by manual scraping. Cells were transferred to a 50-mL conical tube and centrifuged (400×g) for 5 minutes and the test material removed. Remaining cells were rinsed twice with cold 10 mM HEPES. Cells were used in cell binding assays."}, "[6]": {"system": "HEK293 cells, normal (non-induced)", "experiment": "Permeability of chelates to HEK293 cells, fluorescence of fractions", "assay_type": "cell-based, human", "settings": "HEK293 Normal; 1 mM chelate, 2 hours", "protocol": "as §1, §2"}, "[7]": {"system": "DMBA-induced tumor tissue of buccal cheek pouch", "settings": "2 mM solution topical, 10 minutes; for Fluorescence/mg Cytoplasm / Fluorescence/mg Membrane: readings Adjusted Volume CNT*mm2"}, "[8]": {"system": "cancer cells (LNCaP, Caco-2, T84)", "experiment": "Chelate permeability and specificity, cancer cells versus normal cells (summary)", "assay_type": "cell-based, human", "settings": "cancer cells"}, "[9]": {"system": "Caco-2 cell line", "experiment": "Chelate permeability: fluorescence of cytoplasm and membrane fractions", "assay_type": "cell-based, human"}, "[10]": {"system": "normal cheek pouch tissue", "settings": "2 mM solution topical, 10 minutes, readings Adjusted Volume CNT*mm2"}, "[11]": {"system": "PZ-HPV-7 normal cell line", "experiment": "Chelate permeability: fluorescence of cytoplasm and membrane fractions", "assay_type": "cell-based", "settings": "PZ-HPV-7"}, "[12]": {"system": "cancer cell lines (LNCaP, T84, Caco-2, RBL-2H3) and healthy control cells"}, "[13]": {"settings": "0-2000 μM, 2 hours, compared to PZ-HPV-7"}}, "note": "Like-named read-outs stand apart in the source and are kept apart here."}
{"compound": "CCCCOP(=O)([O-])CN1CCN(CP(=O)([O-])OCCCC)Cc2cccc(n2)CN(CP(=O)([O-])OCCCC)CC1.[Tb+3]", "note": "[Tb-PCTMB, Tb(III) 3,6,9-tris(methylenephosphonic acid n-butyl ester)-3,6,9,15-tetraazabicyclo[9.3.1]pentadeca-1(15),11,13-triene]", "values": [{"measurement": "binding to protein expressed in cancer cell lines (HSPC194, about 15 kDa)", "setting": "[1]", "value": "binds specifically to a single protein"}, {"measurement": "fluorescence in the cytoplasm, dose response", "setting": "[2]; [13]", "value": "significant increases in fluorescence"}, {"measurement": "Fluorescence/mg Cytoplasm", "setting": "[2]; 1 mM chelate, 2 h, Table 1", "value": 616.8}, {"measurement": "Fluorescence/mg Membrane", "setting": "[2]; 1 mM chelate, 2 h, Table 1", "value": 448.9}, {"measurement": "fluorescence in the membrane fractions, dose response", "setting": "[3]", "value": "detectable quantity of fluorescence"}, {"measurement": "fluorescence in the cytoplasm, dose response", "setting": "[3]; compared to PZ-HPV-7", "value": "significant increases in fluorescence"}, {"measurement": "Fluorescence/mg Cytoplasm", "setting": "[4]", "value": 476.4}, {"measurement": "Fluorescence/mg Membrane", "setting": "[4]", "value": 355.5}, {"measurement": "permeability to apoptotic induced HEK293 cells", "setting": "[5]", "value": "permeable"}, {"measurement": "Fluorescence/mg Membrane", "setting": "[5]; HEK293 Apoptotic (etoposide 20 μM, 24 hours), 1 mM chelate, 2 hours", "value": 949}, {"measurement": "Fluorescence/mg Membrane", "setting": "[6]", "value": 925}, {"measurement": "fluorescence in the cytoplasm of tumor tissue compared to normal tissue", "setting": "[7]", "value": "significantly greater fluorescence"}, {"measurement": "Fluorescence/mg Cytoplasm", "setting": "[7]; Tumor 1", "value": 3014}, {"measurement": "Fluorescence/mg Membrane", "setting": "[7]; Tumor 1", "value": 1331}, {"measurement": "Fluorescence/mg Cytoplasm", "setting": "[7]; Tumor 2", "value": 3064}, {"measurement": "Fluorescence/mg Membrane", "setting": "[7]; Tumor 2", "value": 1484}, {"measurement": "permeability to cell membranes", "setting": "[8]", "value": "permeable to cancer cell membranes"}, {"measurement": "fluorescence in the membrane fractions, dose response", "setting": "[9]; 0-2000 μM, 2 hours", "value": "detectable quantity of fluorescence"}, {"measurement": "fluorescence in the cytoplasm, dose response", "setting": "[9]; [13]", "value": "significant increases in fluorescence"}, {"measurement": "Fluorescence/mg Cytoplasm", "setting": "[9]; 1 mM chelate, 2 h, Table 1", "value": 481.6}, {"measurement": "Fluorescence/mg Membrane", "setting": "[9]; 1 mM chelate, 2 h, Table 1", "value": 398.6}, {"measurement": "Fluorescence/mg Cytoplasm", "setting": "[10]; Normal 1", "value": 1138}, {"measurement": "Fluorescence/mg Membrane", "setting": "[10]; Normal 1", "value": 1126}, {"measurement": "Fluorescence/mg Cytoplasm", "setting": "[10]; Normal 2", "value": 1117}, {"measurement": "Fluorescence/mg Membrane", "setting": "[10]; Normal 2", "value": 1125}, {"measurement": "detectability in normal cells", "setting": "[11]", "value": "significantly less detectable"}, {"measurement": "localization in cancer cell lines, confocal fluorescence microscopy", "setting": "[12]", "value": "localized throughout the cytoplasm"}, {"measurement": "presence in healthy (control) cells, confocal fluorescence microscopy", "setting": "[12]", "value": "not present"}]}
